Results as given in patent US8344158B2, “Fluorescent polymethine cyanine dyes” (Washington University, priority 2007, dated 2013).

Legend:
[1] = UV-Vis absorption spectroscopy; type: physicochemical; conditions: for ε / λmax: in 25% aqueous DMSO
Protocol: UV-Vis and Fluorescent Spectroscopic Analysis. Stock solutions (3.0 mM) of the dye and its conjugates were prepared by dissolving them in DMSO. […] The molar extinction coefficient was obtained using Beer's law at 0.1-0.6 μM concentration of the dye. […]

[2] = Fluorescence spectroscopy (emission, relative quantum yield, brightness); type: physicochemical; conditions: for λmax, em: in methanol (Table 1); for ΦB, relative brightness referenced to ICG: product of quantum yield and molar absorptivity, ICG = 1; for ΦF, relative fluorescence quantum yield: MeOH, ICG as standard
Protocol: UV-Vis and Fluorescent Spectroscopic Analysis. Stock solutions (3.0 mM) of the dye and its conjugates were prepared by dissolving them in DMSO. […] The molar extinction coefficient was obtained using Beer's law at 0.1-0.6 μM concentration of the dye. The relative fluorescence quantum yield was determined using the equation: ΦF(x)=(As/Ax)(Fx/Fs)(nx/ns)^2ΦF(s)
where ΦF(X) is the fluorescence quantum yield, A is the absorbance, F is the area under the emission curve, n is the refractive index of the solvents used in measurement, and the subscripts s and x represent the standard and unknown, respectively. Indocyanine green (ICG) was used as a reference standard.

ε (molar absorptivity) [1] | λmax, abs [1] | λmax, em [2] | ΦB, relative brightness referenced to ICG [2] | ε [1] | λmax [1] | ΦF, relative fluorescence quantum yield [2] | Structure (SMILES)
204000 M⁻¹ cm⁻¹ | 785 nm | 807 nm | 1 | – | – | – | CC1(C)C(/C=C/C=C/C=C/C=C2\N(CCCCS(=O)(=O)O)c3ccc4ccccc4c3C2(C)C)=[N+](CCCCS(=O)(=O)[O-])c2ccc3ccccc3c21 [ICG, indocyanine green, reference compound]
– | 800 nm | 811 nm | 1.3 | 240 000 M^−1 cm^−1 | 800 nm | 0.088 | CC1(C)C(=CC=C2CCCC(C=CC3=[N+](CCCS(=O)(=O)[O-])c4ccc5ccccc5c4C3(C)C)=C2c2ccc(C(=O)O)cc2)N(CCCS(=O)(=O)[O-])c2ccc3ccccc3c21.[Na+] [Dye 2a]
– | 770 nm | 785 nm | 1.4 | 220 000 M^−1 cm^−1 | 770 nm | 0.10 | CC1(C)C(=CC=C2CCCC(C=CC3=[N+](CCCCS(=O)(=O)[O-])c4ccc(S(=O)(=O)[O-])cc4C3(C)C)=C2c2ccc(C(=O)O)cc2)N(CCCCS(=O)(=O)[O-])c2ccc(S(=O)(=O)[O-])cc21.[Na+].[Na+].[Na+] [Dye 2c]
– | 800 nm | 811 nm | 1.4 | 240 000 M^−1 cm^−1 | 800 nm | 0.092 | CC1(C)C(=CC=C2CCCC(C=CC3=[N+](CCCCS(=O)(=O)[O-])c4ccc5ccccc5c4C3(C)C)=C2c2ccc(C(=O)O)cc2)N(CCCCS(=O)(=O)[O-])c2ccc3ccccc3c21.[Na+] [Dye 2b]
